Source: ChEMBL document CHEMBL5335833, “Asperustins A-J: Austocystins with Immunosuppressive and Cytotoxic Activities from Aspergillus ustus NRRL 5856” (J Nat Prod, 2024)

Assays:
Splenocyte [1] = experiment: Immunosuppressive activity in BALB/c mouse splenocytes assessed as reduction in ConA-induced mouse T-lymphocytes proliferation; format: functional, cell-based
Splenocyte [2] = experiment: Immunosuppressive activity in BALB/c mouse splenocytes assessed as reduction in […]-induced mouse B-lymphocyte proliferation; format: functional, cell-based
Splenocyte [3] = experiment: Immunosuppressive activity in LPS-induced BALB/c mouse splenocyte assessed as reduction in IL-6 cytokine level incubated for 48 hrs by ELISA assay; format: functional, cell-based; settings: dose 0.2-5 µM
MCF7 = experiment: Cytotoxicity against human MCF7 cells; format: functional, cell-based
[4] = Cytotoxicity against mouse T-lymphocytes; format: toxicity, cell-based, T-cell
[5] = Cytotoxicity against mouse B-lymphocytes; format: toxicity, cell-based, B-cell
[6] = Selectivity index, ratio of CC50 for cytotoxicity against mouse T lymphocytes to IC50 for Immunosuppressive activity in BALB/c mouse splenocytes assessed as reduction in ConA-induced mouse T-lymphocytes proliferation; format: toxicity, cell-based
[7] = Selectivity index, ratio of CC50 for cytotoxicity against mouse T lymphocytes to IC50 for Immunosuppressive activity in BALB/c mouse splenocytes assessed as reduction in […]-induced mouse B-lymphocytes proliferation; format: toxicity, cell-based

SMILES	IC50 (Splenocyte [1]) [µM]	IC50 (Splenocyte [2])	Activity (Splenocyte [3])	IC50 (MCF7) [µM]	CC50 [4] [µM]	CC50 [5] [µM]	selectivity ratio [6]	selectivity ratio [7]
COc1ccc(CCC(C)(C)O)c2c1C(=O)C1C(O)=C3C(=CC1O2)O[C@H]1OC=C[C@@]31O (stereo partly drawn)	1	8.4 µM	Dose-Dependent Effect	0.46	14	14	14	1.7
COC1=C2C(=CC3Oc4ccc(Cl)c(OC)c4C(=O)C13)O[C@H]1O[C@H](OC(C)=O)C[C@@H]21 (stereo partly drawn)	16	20 µM	–	–	28	28	1.8	1.4
CO[C@H]1C[C@@]2(O)C3=C(O)C4C(=O)c5c(O)ccc(CCC(C)(C)O)c5OC4C=C3O[C@H]2O1 (stereo partly drawn)	1.2	4.3 µM	–	–	8.9	8.9	7.4	2.1
COC1=C2C(=CC3Oc4ccc(Cl)c(OC)c4C(=O)C13)O[C@H]1O[C@@H](OC)C[C@@H]21 (stereo partly drawn)	27	11 µM	–	–	> 40	> 40	> 1.5	> 3.6
CC(C)(O)C[C@H](O)c1ccc(O)c2c1OC1C=C3O[C@H]4OC=C[C@@]4(O)C3=C(O)C1C2=O (stereo partly drawn)	0.93	12 µM	Dose-Dependent Effect	0.46	16	16	17	1.3
C[C@]12CCC[C@H](O1)c1c(cc3c(c1O)C(=O)c1c(O)cc(O)cc1C3=O)O2	4.8	22 µM	–	–	> 40	> 40	> 8.3	> 1.8
CC(C)(O)C[C@H](O)c1ccc(O)c2c1OC1C=C3O[C@H]4OC=C[C@H]4C3=C(O)C1C2=O (stereo partly drawn)	1.2	7.5 µM	–	0.46	8.1	8.1	6.8	1.1
CCCCC[C@H](O)c1c(O)cc2c(c1O)C(=O)C1C(O)=CC(O)=CC1C2=O (stereo partly drawn)	> 40	17 µM	–	–	> 40	> 40	–	> 2.4
CC(C)(O)CCc1ccc(O)c2c1OC1C=C3O[C@H]4OCC[C@H]4C3=C(O)C1C2=O (stereo partly drawn)	1	3.6 µM	–	–	5.2	5.2	5.2	1.4
CO[C@@H]1C[C@H]2C3=C(O)C4C(=O)c5c(O)ccc(CCC(C)(C)O)c5OC4C=C3O[C@H]2O1 (stereo partly drawn)	2.1	4.8 µM	–	–	12	12	5.7	2.5
O=C1c2c(O)cccc2OC2C=C3O[C@H]4OC=C[C@@]4(O)C3=C(O)C12 (stereo partly drawn)	9.4	> 40 µM	–	–	> 40	> 40	> 4.2	–
COC1=C2C(=CC3Oc4ccc(Cl)c(OC)c4C(=O)C13)O[C@H]1O[C@H](OC)C[C@@H]21 (stereo partly drawn)	11	5.1 µM	–	–	> 40	> 40	> 3.6	> 7.8
COc1c(Cl)ccc2c1C(=O)C1C(O)=C3C(=CC1O2)O[C@H]1OC=C[C@@]31O (stereo partly drawn)	> 40	> 40 µM	–	–	> 40	> 40	–	–
COC1=C2C(=CC3Oc4c(CCC(C)(C)O)ccc(O)c4C(=O)C13)O[C@H]1OC=C[C@@H]21 (stereo partly drawn)	4	5.8 µM	–	0.46	17	17	4.3	2.9
CC(C)=CCc1ccc(O)c2c1OC1C=C3O[C@H]4OC=C[C@@]4(O)C3=C(O)C1C2=O (stereo partly drawn)	14	16 µM	–	–	15	15	1.1	0.94
COc1c(C)c2c(c(O)c1C/C=C(\C)CCC(=O)OCCN1CCOCC1)C(=O)OC2 [MYCOPHENOLATE MOFETIL]	–	0.21 µg/mL	–	–	–	–	–	–
CC(C)(O)CCc1ccc(O)c2c(=O)c3c(O)c4c(cc3oc12)O[C@H]1OC=C[C@@]41O [AUSTOCYSTIN D]	1.6	4 µM	–	0.46	7.8	7.8	4.9	2
COC1=C2C(=CC3Oc4cccc(O)c4C(=O)C13)O[C@H]1OC=C[C@@]21O (stereo partly drawn)	> 40	> 40 µM	–	–	> 40	> 40	–	–
COc1cc(OC)c2c(c1)C(=O)C1C=C3O[C@@]4(C)CC[C@H](O)[C@H](O4)C3=C(O)C1C2=O (stereo partly drawn)	> 40	7 µM	–	–	> 40	> 40	–	> 5.7
CO[C@@H]1C[C@@]2(O)C3=C(O)C4C(=O)c5c(O)ccc(CCC(C)(C)O)c5OC4C=C3O[C@H]2O1 (stereo partly drawn)	1.3	3.8 µM	–	–	7.7	7.7	5.9	2
CO[C@H]1C[C@H]2C3=C(O)C4C(=O)c5c(O)ccc(CCC(C)(C)O)c5OC4C=C3O[C@H]2O1 (stereo partly drawn)	1.1	7.9 µM	Dose-Dependent Effect	–	15	15	14	1.9
CCCCC[C@H](OC)c1c(O)cc2c(c1O)C(=O)C1C(O)=CC(O)=CC1C2=O (stereo partly drawn)	> 40	> 40 µM	–	–	> 40	> 40	–	–
COC1=C2C(=CC3Oc4c(OC)cc(Cl)c(OC)c4C(=O)C13)O[C@H]1OC=C[C@@H]21 (stereo partly drawn)	7.1	13 µM	–	–	12	12	1.7	0.92
COC1=C2C(=CC3Oc4c(OC)cc(Cl)c(OC)c4C(=O)C13)O[C@H]1O[C@@H](O)C[C@@H]21 (stereo partly drawn)	11	10 µM	–	–	31	31	2.8	3.1
